The text below walks through data of patent US5763408A, “Amino acid derivatives and application thereof” (Fuji Photo Film Co., Ltd., priority 1992, dated 1998).

For assay [1], the system named is PRP (polyplatelet rich plasma). As to the kind of experiment: Platelet aggregation inhibition activity (ADP-induced aggregation in PRP). The class given is cell-based. As to conditions: for Platelet aggregation inhibition rate (%): test compound 1 mg/ml in PRP, ADP as inducer, five minutes later. The method, then: Platelet aggregation inhibition activities of Compounds 1, 2, 3, 4, 5, 6, 7 and 15 were examined.
A test compound was added to PRP (polyplatelet rich plasma, 3×10^8 cells/ml) so that the plasma contained the compound at a concentration of 1 mg/ml and the plasma was added with 10 μl of ADP as an aggregation inducing substance. Five minutes later, aggregation ratio was determined by a chronologic whole blood aggregation ability measuring apparatus to calculate platelet aggregation inhibition ratio.

Another assay has as its system B16-BL6 melanoma cells. The assay can be described thus: Experimental metastasis test of B16-BL6 melanoma cells in lung. Format: in vivo, C57BL/6 female mice. Particulars: day 14. The protocol:
Tumor metastasis inhibition activities of the compounds of the present invention were examined.
A test compound and B16-BL6 melanoma cells, which have strong metastatic property, were mixed in PBS. 0.2 ml of the mixture was intravenously injected to each of C57BL/6 female mice, of which groups each consisted of 5 mice. The mixture injected (0.2 ml) contained 5×10^4 B16-BL6 cells. On the 14th day from the administration, number of melanoma cell colonies was determined and compared with that of control mice, which were administered with PBS.

Assay [2] deals with L5178Y-ML25 T-lymphoma cells. As to the kind of experiment: Experimental metastasis of L5178Y-ML25 T-lymphoma cells (weights of livers and spleens). The class given is in vivo, CDF1 mice. As to conditions: day 14, in g (unit assumed); for Weight of spleen (Mean ± SD): PBS 0.23 ± 0.03, no lymphoma cell 0.12 ± 0.02; for Weight of liver (Mean ± SD): PBS 4.18 ± 0.30, no lymphoma cell 1.36 ± 0.02. The protocol: A test compound and L5178Y-ML25 T-lymphoma cells were mixed in PBS. 0.2 ml of the mixture was intravenously injected to each of CDF1 mice, of which groups each consisted of 5 mice. The mixture injected (0.2 ml) contained 4×10^4 L5178Y-ML25 T-lymphoma cells. On the 14th day from the administration, weights of livers and spleens of mice were determined and compared with those of control mice, which were administered with PBS.

Another assay concerns colon 26/M3.1 cells. The assay can be described thus: Experimental metastasis test of colon 26/M3.1 cells in lung. The class given is in vivo, C57BL/6 female mice. Particulars: Table 13, 1000 μg/mouse, day 14, PBS control 148 ± 12. The protocol: A test compound and colon 26/M3.1 cells, which have strong metastatic property, were mixed in PBS. 0.2 ml of the mixture was intravenously injected to each of C57BL/6 female mice, of which groups each consisted of 5 mice. The mixture injected (0.2 ml) contained 4×10^4 colon 26/M3.1 cells. On the 14th day from the administration, number of colonies in lung was determined and compared with that of control mice, which were administered with PBS.
A segment peptide of fibronectin, Gly-Arg-Gly-Asp-Ser (GRGDS), of which tumour metastasis inhibition activities have been known, was used as a comparative sample.

Setting [3] is: Table 4, 500 μg/mouse, PBS control 96 ± 14.
Setting [4] is: Table 5, 1000 μg/mouse, PBS control 118 ± 15.
The mark [5] stands for this setting: Table 6, 500 μg/mouse, PBS control 103 ± 30.
Where [6] appears, read: Table 7, 500 μg/mouse, PBS control 101 ± 28.
Where [7] appears, read: Table 11, 500 μg/mouse, PBS control 114 ± 28.

Broadly, the IC50 is the concentration at which inhibition is half-maximal. A higher IC50 goes with weaker potency. In assay [1] (platelet aggregation, PRP, ADP), `N=C(N)NCCC[C@H](NC(=O)CC(=O)N[C@@H](CC(=O)O)C(=O)O)C(=O)O` [Compound 1] showed an IC50 of 2.4 mM. Further, the “Platelet aggregation inhibition rate (%)” value in assay [1] is 57%. The “Number of colonies (Mean ± SD)” value with B16-BL6 melanoma cells (Table 2, 1000 μg/mouse i.v. mixed with cells, PBS control 141 ± 16) was determined as 46 ± 10; in the assay on B16-BL6 melanoma cells (setting [3]) it was 13 ± 6; in the assay on B16-BL6 melanoma cells (setting [4]), 25 ± 8; in the assay on B16-BL6 melanoma cells (setting [5]), 63 ± 23; in the assay with B16-BL6 melanoma cells (setting [6]), 19 ± 11; in the assay with colon 26/M3.1 cells, 31 ± 26. The “Weight of spleen (Mean ± SD)” value is reported as 0.18 ± 0.02 in assay [2] (100 μg/mouse), 0.20 ± 0.02 in assay [2] (500 μg/mouse) and 0.14 ± 0.01 in assay [2] (1000 μg/mouse). Moreover, the “Weight of liver (Mean ± SD)” value in assay [2] (100 μg/mouse) was found to be 3.09 ± 0.78; in assay [2] (500 μg/mouse), 2.98 ± 0.29; in assay [2] (1000 μg/mouse), 1.84 ± 0.36.
Take `N=C(N)NCCCC(NCC(=O)NC(CC(=O)O)C(=O)O)C(=O)O` (stereo not shown) [Compound 34]: the “Number of colonies (Mean ± SD)” value in the assay on B16-BL6 melanoma cells (setting [7]) was determined as 51 ± 19.
For `N=C(N)NCCC[C@@H](NC(=O)CC(=O)N[C@@H](CC(=O)O)C(=O)O)C(=O)O` [Compound 2], the “Platelet aggregation inhibition rate (%)” value in assay [1] was determined as 53%. The “Number of colonies (Mean ± SD)” value turned out to be 39 ± 13 in the assay with B16-BL6 melanoma cells (Table 3, 500 μg/mouse, PBS control 81 ± 23); 3 ± 2 with B16-BL6 melanoma cells (Table 3, 1000 μg/mouse, PBS control 81 ± 23); 23 ± 9 with B16-BL6 melanoma cells (setting [3]); 72 ± 15 in the assay with B16-BL6 melanoma cells (setting [5]); 38 ± 16 in the assay with B16-BL6 melanoma cells (setting [6]).
Consider `N=C(N)NCCCC(NC(=O)CC(=O)NC(CC(=O)O)C(=O)O)C(=O)NCC(=O)O` (stereo not shown) [Compound 19], for which the “Number of colonies (Mean ± SD)” value in the assay on B16-BL6 melanoma cells (Table 8, 1000 μg/mouse, PBS control 168 ± 28) is reported as 32 ± 8; in the assay with B16-BL6 melanoma cells (Table 9, 1000 μg/mouse, PBS control 168 ± 28), 32 ± 8.
Regarding `N=C(N)NCCCC(NC(=O)C(=O)NC(CC(=O)O)C(=O)O)C(=O)O` (stereo not shown) [Compound 33], the “Number of colonies (Mean ± SD)” value with B16-BL6 melanoma cells (setting [7]) is reported as 51 ± 18.
`CNC(=O)C(CCCNC(=N)N)NC(=O)CC(=O)NC(CC(=O)O)C(=O)NC` (stereo not shown) [Compound 14]: the “Number of colonies (Mean ± SD)” value worked out at 94 ± 26 in the assay with B16-BL6 melanoma cells (setting [3]) and 69 ± 7 with B16-BL6 melanoma cells (setting [4]).
As for `N=C(N)NCCC[C@H](NC(=O)CC(=O)N[C@@H](CC(=O)O)C(=O)N[C@@H](CO)C(=O)O)C(=O)O` [Compound 15], the “Platelet aggregation inhibition rate (%)” value in assay [1] is 47%. Further, the “Number of colonies (Mean ± SD)” value amounted to 39 ± 17 with B16-BL6 melanoma cells (setting [5]) and 32 ± 8 in the assay on B16-BL6 melanoma cells (setting [6]).
With `CNC(=O)C(CCCNC(=N)N)NC(=O)CC(=O)NC(CC(=O)O)C(=O)O` (stereo not shown) [Compound 12], the “Number of colonies (Mean ± SD)” value came to 58 ± 20 in the assay with B16-BL6 melanoma cells (setting [3]) and 19 ± 6 in the assay with B16-BL6 melanoma cells (setting [4]).
On the same counts, the results for `CNC(=O)C(CC(=O)O)NC(=O)CC(=O)NC(CCCNC(=N)N)C(=O)O` (stereo not shown) [Compound 8] are 55 ± 12 and 24 ± 9.
As for `N=C(N)NCCCC(NC(=O)CNC(CC(=O)O)C(=O)O)C(=O)O` (stereo not shown) [Compound 35], in the assay with B16-BL6 melanoma cells (setting [7]), the “Number of colonies (Mean ± SD)” value was 52 ± 14.
